From patent US20250171418A1, “PARP1 INHIBITORS AND USES THEREOF” (XinThera, Inc., priority 2022, published 2025)

How the values were obtained:
MDR1 = biological target: T1, MDR1 (Homo sapiens, UniProt P08183); experiment: In vitro human transporter efflux, MDCKII cells expressing MDR1; type: in vitro ADME; settings: for Papp A→B at 2 h, 10 μM: MDCK-MDR1, pH 7.4, read-out: MDCK-MDR1 Papp AB; for Papp B→A at 2 h, 10 μM: MDCK-MDR1, pH 7.4, read-out: MDCK-MDR1 Papp BA; for efflux ratio at 2 h, 10 μM: MDCK-MDR1, pH 7.4, Efflux ratio=Papp(B→A)/Papp(A→B)
T1 construct: expressed in transfected cells; host or cells: MDCKII (Madin-Darby canine kidney) cells
T1 sequence (P08183 whole entry): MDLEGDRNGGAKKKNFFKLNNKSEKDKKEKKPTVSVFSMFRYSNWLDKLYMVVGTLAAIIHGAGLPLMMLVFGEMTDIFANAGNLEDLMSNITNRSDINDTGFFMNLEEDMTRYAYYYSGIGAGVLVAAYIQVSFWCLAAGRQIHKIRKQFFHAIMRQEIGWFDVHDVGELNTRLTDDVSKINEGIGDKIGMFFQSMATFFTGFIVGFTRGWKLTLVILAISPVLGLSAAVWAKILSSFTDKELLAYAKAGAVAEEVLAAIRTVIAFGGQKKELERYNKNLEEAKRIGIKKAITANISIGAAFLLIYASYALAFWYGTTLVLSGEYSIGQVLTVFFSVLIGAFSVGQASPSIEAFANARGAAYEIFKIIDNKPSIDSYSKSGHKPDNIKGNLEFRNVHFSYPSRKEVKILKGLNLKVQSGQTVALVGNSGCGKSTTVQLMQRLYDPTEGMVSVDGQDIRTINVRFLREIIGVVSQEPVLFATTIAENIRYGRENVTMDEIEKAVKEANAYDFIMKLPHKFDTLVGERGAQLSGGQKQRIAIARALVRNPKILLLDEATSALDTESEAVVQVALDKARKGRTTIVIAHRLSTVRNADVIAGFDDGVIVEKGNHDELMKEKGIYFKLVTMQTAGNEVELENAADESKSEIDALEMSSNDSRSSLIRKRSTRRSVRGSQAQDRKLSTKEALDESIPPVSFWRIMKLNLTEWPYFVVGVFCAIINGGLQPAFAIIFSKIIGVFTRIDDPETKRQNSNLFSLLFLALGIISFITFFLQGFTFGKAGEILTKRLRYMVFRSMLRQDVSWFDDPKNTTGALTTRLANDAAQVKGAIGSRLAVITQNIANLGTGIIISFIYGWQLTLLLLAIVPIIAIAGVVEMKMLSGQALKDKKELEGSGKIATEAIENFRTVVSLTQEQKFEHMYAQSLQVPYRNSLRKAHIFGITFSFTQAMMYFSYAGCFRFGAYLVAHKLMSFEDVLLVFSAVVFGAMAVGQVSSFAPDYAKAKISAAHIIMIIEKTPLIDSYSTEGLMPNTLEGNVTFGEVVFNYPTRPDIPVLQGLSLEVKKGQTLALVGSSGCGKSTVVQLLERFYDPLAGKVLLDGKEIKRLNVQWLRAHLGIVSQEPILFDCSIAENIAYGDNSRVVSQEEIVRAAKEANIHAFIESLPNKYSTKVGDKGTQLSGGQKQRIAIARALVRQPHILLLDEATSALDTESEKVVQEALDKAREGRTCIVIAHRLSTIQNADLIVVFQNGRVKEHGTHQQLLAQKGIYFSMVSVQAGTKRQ
Method: (§1) Madin-Darby canine kidney (MDCKII) cells expressing either MDR1 or BCRP were seeded onto Corning HTS Transwell® 96-well polycarbonate permeable (0.4 μm pore) supports at a density of 545,000 cells/cm2. Cells were incubated for 4-8 days prior to assay, and monolayer integrity was assessed by measuring transepithelial electrical resistance (TEER). […] The final organic solvent concentration was 0.5% (v/v). Bidirectional (apical-to-basolateral and basolateral-to-apical) flux of the test and reference compounds was determined over a 2-hour incubation at 37° C. and […] with a relative humidity of 95%. At the end of the incubation, samples from the apical and basolateral side were taken and then precipitated with acetonitrile containing internal standard. After centrifugation at 3200×g, supernatants were diluted 1:1 (v/v) with water and subjected to analysis via HPLC-MS/MS.
(§2) The apparent permeability (Papp, units of x 10-6 cm/s) was calculated using the following equation: […]
(§3) Where dQ/dt was the rate of drug transport (pmol/s), A was the surface area of the membrane (0.143 cm^2), and DO was the initial donor concentration (nM or pmol/cm3).
(§4) Efflux ratio=Papp(B→A)/Papp(A→B)
(§5) Where Papp(B→A) is the apparent permeability in the basolateral-to-apical direction, and Papp(A→B) is the apparent permeability in the apical-to-basolateral direction.

[1] = system: MDA-MB-436 (mutated BRCA1) cell lines; experiment: Cell growth inhibition assay (CellTiter-Glo cell viability); type: cell-based; settings: Homo sapiens, 168 h; MDA-MB-436 cells, 7 days, CellTiter Glo 2.0
Method: (§6) Cell proliferation was measured through the cell viability assay using DLD-1 BRCA2(−/−) and parental isogenic pair and MDA-MB-436 (mutated BRCA1) cell lines. The CellTiter-Glo (CTG) based cell viability assay is designed to determine the number of viable cells in the culture because of compound effect, by quantifying ATP, which indicates the presence of metabolically active cells.
(§7) DLD-1 BRCA2(−/−) and parental isogenic pair were cultured in RPMI 1640 supplemented with 10% fetal bovine serum (FBS), and MDA-MB-436 cells were cultured in DMEM supplemented with 10% FBS. Both were cultured at 37° C. with […]. Invention compounds were distributed to the 384 well plate (Corning, 3764) using Echo acoustic liquid handler to form a 1:3 serially diluted final concentration with top dose of 10 or 30 μM.

DLD-1 BRCA2(−/−) = experiment: as above; type: cell-based; settings: Homo sapiens, DLD-1, 168 h, DLD-1 BRCA2(−/−) cells, 7 days, CellTiter Glo 2.0
Method: as §6, §7

BCRP = biological target: T2, BCRP (Homo sapiens, UniProt Q9UNQ0); experiment: In vitro human transporter efflux, MDCKII cells expressing BCRP; type: in vitro ADME; settings: for Papp A→B at 2 h, 10 μM: pH 7.4, read-out: BCRP Papp AB; for Papp B→A at 2 h, 10 μM: pH 7.4, read-out: BCRP Papp BA; for efflux ratio at 2 h, 10 μM: pH 7.4, Efflux ratio=Papp(B→A)/Papp(A→B)
T2 construct: expressed in transfected cells; host or cells: MDCKII (Madin-Darby canine kidney) cells
T2 sequence (Q9UNQ0 1-655): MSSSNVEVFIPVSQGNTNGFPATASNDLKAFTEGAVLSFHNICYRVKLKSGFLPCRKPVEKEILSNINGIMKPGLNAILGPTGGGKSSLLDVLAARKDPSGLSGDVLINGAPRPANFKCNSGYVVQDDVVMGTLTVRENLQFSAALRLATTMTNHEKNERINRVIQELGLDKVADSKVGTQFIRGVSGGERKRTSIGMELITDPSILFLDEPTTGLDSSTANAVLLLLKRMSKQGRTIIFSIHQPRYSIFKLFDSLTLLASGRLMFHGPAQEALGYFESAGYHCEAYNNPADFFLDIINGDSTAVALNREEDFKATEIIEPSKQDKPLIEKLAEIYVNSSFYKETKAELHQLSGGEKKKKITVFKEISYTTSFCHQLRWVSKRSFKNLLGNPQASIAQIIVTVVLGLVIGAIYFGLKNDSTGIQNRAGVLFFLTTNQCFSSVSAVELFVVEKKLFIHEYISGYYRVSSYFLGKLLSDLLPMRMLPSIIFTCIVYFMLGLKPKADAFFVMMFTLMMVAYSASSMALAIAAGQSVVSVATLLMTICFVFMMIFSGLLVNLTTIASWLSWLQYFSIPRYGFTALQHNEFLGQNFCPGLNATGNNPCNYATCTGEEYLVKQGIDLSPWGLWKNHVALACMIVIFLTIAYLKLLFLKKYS
Method: as §1, §2, §3, §4, §5

[2] = In vivo determination of rat Kp,uu; settings: brain and plasma, 1 mg/kg, male Sprague-Dawley rats, oral gavage, 0.1 mg/mL at 10 mL/kg, Kp*(fraction unbound in brain homogenate/fraction unbound in plasma)
Method: The equilibrium dialysis method was used to investigate the in vitro binding of test articles and reference compounds to plasma proteins. Plasma samples containing 5 μM test article or blank dialysis buffer solution (PBS, pH 7.4) were added to separate chambers of the dialysis wells of the High Throughput equilibrium Dialysis (HTD) device. The dialysis plate was sealed and placed in an incubator at 37° C. with 5% CO2 with shaking at approximately 100 rpm for 6 hours. All experiments were performed in duplicate. Ketoconazole (5 μM) was used as the reference compound. After incubation, the seal was removed, and 50 μL of post-dialysis samples were pipetted from both buffer and plasma chambers into fresh 96well plates. Samples were equimatrilyzed by either addition of blank plasma to buffer samples or the addition of blank buffer to plasma samples. […] The unbound fractions in plasma were calculated using the concentrations of test articles in buffer and plasma samples according to the following equation: […]
The equilibrium dialysis method was used to investigate the in vitro binding of test articles and reference compounds to rodent brain homogenate. […] The unbound fractions in diluted brain homogenate were calculated using the concentrations of test articles in buffer and homogenate samples according to the following equation: […]

PARP1 = PARP1 (Homo sapiens, UniProt P09874); experiment: biochemical
Sequence of PARP1 (P09874 whole entry): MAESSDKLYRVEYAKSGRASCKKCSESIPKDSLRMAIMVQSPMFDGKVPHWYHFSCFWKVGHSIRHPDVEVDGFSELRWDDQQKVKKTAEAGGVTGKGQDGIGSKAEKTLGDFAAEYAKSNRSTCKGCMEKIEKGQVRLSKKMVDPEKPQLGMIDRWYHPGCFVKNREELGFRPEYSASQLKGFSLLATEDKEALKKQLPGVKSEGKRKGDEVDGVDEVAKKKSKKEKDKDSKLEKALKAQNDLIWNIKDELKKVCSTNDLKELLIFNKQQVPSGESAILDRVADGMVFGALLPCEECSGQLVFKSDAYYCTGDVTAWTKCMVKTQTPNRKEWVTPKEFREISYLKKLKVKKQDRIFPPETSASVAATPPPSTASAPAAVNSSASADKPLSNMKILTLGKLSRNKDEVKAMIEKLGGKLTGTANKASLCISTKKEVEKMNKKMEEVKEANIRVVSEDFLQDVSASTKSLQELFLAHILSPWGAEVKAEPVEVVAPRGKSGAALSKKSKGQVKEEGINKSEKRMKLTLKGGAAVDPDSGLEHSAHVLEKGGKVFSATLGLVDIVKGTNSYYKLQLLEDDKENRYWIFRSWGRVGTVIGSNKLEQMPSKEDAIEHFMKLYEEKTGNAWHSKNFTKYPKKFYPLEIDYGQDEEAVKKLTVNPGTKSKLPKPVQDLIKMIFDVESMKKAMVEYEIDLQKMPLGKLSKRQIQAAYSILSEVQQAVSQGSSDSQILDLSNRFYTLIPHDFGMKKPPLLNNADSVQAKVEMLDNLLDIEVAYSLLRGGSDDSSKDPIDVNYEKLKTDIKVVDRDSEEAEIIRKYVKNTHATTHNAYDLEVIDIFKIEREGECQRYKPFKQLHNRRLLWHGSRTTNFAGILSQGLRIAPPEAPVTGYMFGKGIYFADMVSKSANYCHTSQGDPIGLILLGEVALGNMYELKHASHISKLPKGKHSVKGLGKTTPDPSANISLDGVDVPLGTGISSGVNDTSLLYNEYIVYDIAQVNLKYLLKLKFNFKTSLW
Method: The assay was performed utilizing the following method:
Compounds were dissolved in DMSO an Echo550 liquid handler was utilized to make serial dilations in the desired concentration range in Optiplate-384F plates. 100% DMSO was used for the high (with protein) and low (without protein) control samples. 20 nL of compound or DMSO alone was added to individual assay plate wells.
PARP1 and PARP2 protein were expressed, purified, and diluted in assay buffer containing 50 mM Tris pH 8.0, 0.001% Triton X-100, 10 mM MgCl2, 150 mM NaCl to a final concentration of 20 nM. The PARPi-FL was then added at a final concentration of 3 nM.
The assay plate was centrifuged at 1000 rpm for 1 min and incubated for 4 h at room temperature.
The fluorescent polarization was read using an Envision plate reader using the following settings: • Excitation filter—FITC FP 480-Ex Slot 3 • Emission filter—FITC FP P-pol 535-Em Slot 4 • 2nd Emission filter—FITC FP S-pol 535-Em Slot 3 • Mirror module—FITC FP Dual Enh-Slot 1
XLFit (equation 201) is used to calculate a reported IC50 for each compound.

Row | Structure (SMILES) | Papp A→B at 2 h, 10 μM (MDR1) | Papp B→A at 2 h, 10 μM (MDR1) | EC50 [1] | EC50 (DLD-1 BRCA2(−/−)) | Papp A→B at 2 h, 10 μM (BCRP) | Papp B→A at 2 h, 10 μM (BCRP) | efflux ratio at 2 h, 10 μM (MDR1) | Kp uu [2] | efflux ratio at 2 h, 10 μM (BCRP) | IC50 (PARP1)
1 | Cc1nc2ccc(CN3CCN(c4ccc(C(=O)NC5CC5)nc4F)CC3)c(F)c2[nH]c1=O [Example 1, N-cyclopropyl-6-fluoro-5-{4-[(5-fluoro-2-methyl-3-oxo-4H-quinoxalin-6-yl)methyl]piperazin-1-yl}pyridine-2-carboxamide] | 165 nm/s | 300 nm/s | 2.4 nM | 3.7 nM | 257 nm/s | 241 nm/s | 1.82 | 0.37 | 0.94 | 4.5 nM
2 | Cc1nc2ccc(CN3CCN(c4ccc(C(=O)NC56CC(C5)C6)nc4F)CC3)c(F)c2[nH]c1=O [Example 4] |  |  | 3.7 nM | 5.2 nM |  |  |  |  |  | 18 nM
3 | CNC(=O)c1ccc(C2CCN(Cc3ccc4nc(C)c(=O)[nH]c4c3F)CC2)c(F)n1 [Example 5, 6-fluoro-5-{1-[(5-fluoro-2-methyl-3-oxo-4H-quinoxalin-6-yl)methyl]piperidin-4-yl}-N-methylpyridine-2-carboxamide] |  |  | 11 nM | 23 nM |  |  |  |  |  | 16 nM
4 | CNC(=O)c1ccc(C2=CCN(Cc3ccc4nc(C)c(=O)[nH]c4c3F)CC2)c(F)n1 [Example 7, 2-fluoro-1′-[(5-fluoro-2-methyl-3-oxo-4H-quinoxalin-6-yl)methyl]-N-methyl-3′,6′-dihydro-2′H-[3,4′-bipyridine]-6-carboxamide] |  |  | 6.7 nM | 15 nM |  |  |  |  |  | 15 nM
5 | Cc1nc2ccc(CN3CC=C(c4ccc(C(=O)NC5CC5)nc4F)CC3)c(F)c2[nH]c1=O [Example 26] |  |  | 23 nM | 21 nM |  |  |  |  |  | 37 nM

Continued, values first:

Row | Papp A→B at 2 h, 10 μM (MDR1) | Papp B→A at 2 h, 10 μM (MDR1) | EC50 [1] | EC50 (DLD-1 BRCA2(−/−)) | Papp A→B at 2 h, 10 μM (BCRP) | Papp B→A at 2 h, 10 μM (BCRP) | efflux ratio at 2 h, 10 μM (MDR1) | Kp uu [2] | efflux ratio at 2 h, 10 μM (BCRP) | IC50 (PARP1) | Structure (SMILES)
6 | 166 nm/s | 164 nm/s | 2 nM | 3.1 nM | 214 nm/s | 194 nm/s |  |  |  |  | Cc1nc2ccc(CN3CCN(c4ccc(C(=O)N[C@@H]5CC5(F)F)nc4F)CC3)c(F)c2[nH]c1=O (single isomer, unassigned) [Example 21]
7 |  |  | 13 nM | 39 nM |  |  |  |  |  | 15 nM | Cc1nc2ccc(CN3CCN(c4ccc(C(=O)NC5CC5)nc4)CC3)c(F)c2[nH]c1=O [Example 8]
8 |  |  | 3.8 nM | 6.8 nM |  |  |  |  |  | 5.2 nM | Cc1nc2ccc(CN3CCN(c4ccc(C(=O)N[C@H]5C[C@H](F)C5)nc4F)CC3)c(F)c2[nH]c1=O [Example 11]
9 |  |  | 2.1 nM | 2.8 nM |  |  |  |  |  | 5.3 nM | CCc1nc2ccc(CN3CCN(c4ccc(C(=O)NC5CC5)nc4F)CC3)c(F)c2[nH]c1=O [Example 14]
10 | 209 nm/s | 182 nm/s | 2.2 nM | 3.9 nM | 280 nm/s | 202 nm/s | 0.87 |  | 0.73 | 18 nM | Cc1nc2ccc(CN3CCN(c4ccc(C(=O)NCC(F)F)nc4F)CC3)c(F)c2[nH]c1=O [Example 19]
